Data on four compounds can be found in article PMC3195361 (Bioorganic & medicinal chemistry, 2011).

Data set [1] has as its system H2009 cells. The data set can be described thus: Cell viability assay. The data set is classed as cell-based, Human. To be noted: for IC50: 10 min exposure followed by 120 h recovery in media.
Another data set deals with H2009 xenograft. The data set is classed as in vivo, NOD/SCID mice. To be noted: 5 mg/kg based on paclitaxel; for tumor growth rate compared to saline: i.v. tail vein, days 18, 21, 24, 27, 30.
The test system of data set [2] is H2009 cells. The data set can be described thus: Cell cycle analysis by PI DNA staining and flow cytometry. To be noted: for effect on cell cycle: H2009 cells. The data set is classed as cell-based, Human. Background: A flow cytometer gives signals particle by particle.
The subject of a further data set is H460 cells. As to the kind of experiment: Cell viability assay. The data set is classed as cell-based, Human. To be noted: H460.1 column; 10 min exposure followed by 120 h recovery in media.
The conditions of data set [3]: 5 mg/kg based on paclitaxel, 5 injections; data not shown.
For the next data set, the system named is integrin αvβ6. To be noted: read-out: half-maximal binding affinity; tetramerized H2009.1 peptide; cited from earlier work.
Data set [4] can be described thus: Solubility of the peptide-paclitaxel conjugates. To be noted: cold water; white powder. The data set is classed as physicochemical.
The conditions of data set [5]: PBS pH 7.4, 37° C, after 96 hours.
Data set [6] concerns H2009 cells (αvβ6-positive). The data set is classed as binding, Human. To be noted: fluorescein-labeled conjugate, 1 hour, flow cytometry.
Where [7] appears, read: 1 μM paclitaxel column, time not printed in table (24 h elsewhere in the source).

The IC50 is the concentration at which inhibition is half-maximal. Read a low IC50 as greater potency. Regarding `CC(=O)O[C@H]1C(=O)[C@@]2(C)[C@H]([C@H](OC(=O)c3ccccc3)[C@]3(O)C[C@H](OC(=O)[C@H](O)[C@@H](NC(=O)c4ccccc4)c4ccccc4)C(C)=C1C3(C)C)[C@]1(OC(C)=O)CO[C@@H]1C[C@@H]2O` [Paclitaxel, reference compound], the “effect on cell viability within the first 48 h” value in the data set on H2009 cells [1] (1 μM for 10 min, then recovery) was “rapid reduction of cell viability”. Moreover, the IC50 in the data set on H2009 cells [1] was found to be 14.8 ± 3.3 nM. Further, the “tumor growth rate compared to saline” value with H2009 xenograft is on record as “slowed”. In addition, in the data set on H2009 cells [2] (setting [7]), the G2/M turned out to be 73.5, the Polyploid amounted to 14 and the S is given as 4.1. Moreover, the “effect on cell cycle” value in the data set with H2009 cells [2] (1 μM, at 24 h) is “G2/M cell cycle arrest was observed”. In addition, the IC50 in the data set on H460 cells was 23.6 ± 7.4 nM. In addition, the animal weights entry in data set [3] is listed as “remained steady”.
Consider `CC(C)C[C@H](NC(=O)[C@H](CCC(N)=O)NC(=O)[C@H](CCCNC(=N)N)NC(=O)[C@H](CC(C)C)NC(=O)[C@@H](NC(=O)[C@H](C)NC(=O)[C@H](CC(C)C)NC(=O)[C@H](CC(=O)O)NC(=O)CNC(=O)[C@@H](N)CCCNC(=N)N)[C@@H](C)O)C(=O)NCCOCCOCCOCCOCCOCCOCCOCCOCCOCCOCCOCCOCCC(=O)N[C@@H](CSC1CC(=O)N(CCC(=O)NCCCC[C@H](NC(=O)CCN2C(=O)CC(SC[C@H](NC(=O)CCOCCOCCOCCOCCOCCOCCOCCOCCOCCOCCOCCOCCNC(=O)[C@H](CC(C)C)NC(=O)[C@H](CCC(N)=O)NC(=O)[C@H](CCCNC(=N)N)NC(=O)[C@H](CC(C)C)NC(=O)[C@@H](NC(=O)[C@H](C)NC(=O)[C@H](CC(C)C)NC(=O)[C@H](CC(=O)O)NC(=O)CNC(=O)[C@@H](N)CCCNC(=N)N)[C@@H](C)O)C(N)=O)C2=O)C(=O)NCCCC[C@H](NC(=O)[C@H](CCCCNC(=O)CCN2C(=O)CC(SC[C@H](NC(=O)CCOCCOCCOCCOCCOCCOCCOCCOCCOCCOCCOCCOCCNC(=O)[C@H](CC(C)C)NC(=O)[C@H](CCC(N)=O)NC(=O)[C@H](CCCNC(=N)N)NC(=O)[C@H](CC(C)C)NC(=O)[C@@H](NC(=O)[C@H](C)NC(=O)[C@H](CC(C)C)NC(=O)[C@H](CC(=O)O)NC(=O)CNC(=O)[C@@H](N)CCCNC(=N)N)[C@@H](C)O)C(N)=O)C2=O)NC(=O)CCN2C(=O)CC(SC[C@H](NC(=O)CCOCCOCCOCCOCCOCCOCCOCCOCCOCCOCCOCCOCCNC(=O)[C@H](CC(C)C)NC(=O)[C@H](CCC(N)=O)NC(=O)[C@H](CCCNC(=N)N)NC(=O)[C@H](CC(C)C)NC(=O)[C@@H](NC(=O)[C@H](C)NC(=O)[C@H](CC(C)C)NC(=O)[C@H](CC(=O)O)NC(=O)CNC(=O)[C@@H](N)CCCNC(=N)N)[C@@H](C)O)C(N)=O)C2=O)C(=O)N[C@@H](CS)C(=O)NCCC(=O)O)C1=O)C(N)=O` (stereo partly drawn) [compound 2], for which the EC50 with integrin αvβ6 is 0.05 nM.
For `CC(=O)O[C@H]1C(=O)[C@@]2(C)[C@H]([C@H](OC(=O)c3ccccc3)[C@]3(O)C[C@H](OC(=O)[C@H](OC(=O)CCN4C(=O)CC(SC[C@H](NC(=O)[C@H](CCCCNC(=O)[C@H](CCCCNC(=O)CCN5C(=O)CC(SC[C@H](NC(=O)CCOCCOCCOCCOCCOCCOCCOCCOCCOCCOCCOCCOCCNC(=O)[C@H](CC(C)C)NC(=O)[C@H](CCC(N)=O)NC(=O)[C@H](CCCNC(=N)N)NC(=O)[C@H](CC(C)C)NC(=O)[C@@H](NC(=O)[C@H](C)NC(=O)[C@H](CC(C)C)NC(=O)[C@H](CC(=O)O)NC(=O)CNC(=O)[C@@H](N)CCCNC(=N)N)[C@@H](C)O)C(N)=O)C5=O)NC(=O)CCN5C(=O)CC(SC[C@H](NC(=O)CCOCCOCCOCCOCCOCCOCCOCCOCCOCCOCCOCCOCCNC(=O)[C@H](CC(C)C)NC(=O)[C@H](CCC(N)=O)NC(=O)[C@H](CCCNC(=N)N)NC(=O)[C@H](CC(C)C)NC(=O)[C@@H](NC(=O)[C@H](C)NC(=O)[C@H](CC(C)C)NC(=O)[C@H](CC(=O)O)NC(=O)CNC(=O)[C@@H](N)CCCNC(=N)N)[C@@H](C)O)C(N)=O)C5=O)NC(=O)[C@H](CCCCNC(=O)CCN5C(=O)CC(SC[C@H](NC(=O)CCOCCOCCOCCOCCOCCOCCOCCOCCOCCOCCOCCOCCNC(=O)[C@H](CC(C)C)NC(=O)[C@H](CCC(N)=O)NC(=O)[C@H](CCCNC(=N)N)NC(=O)[C@H](CC(C)C)NC(=O)[C@@H](NC(=O)[C@H](C)NC(=O)[C@H](CC(C)C)NC(=O)[C@H](CC(=O)O)NC(=O)CNC(=O)[C@@H](N)CCCNC(=N)N)[C@@H](C)O)C(N)=O)C5=O)NC(=O)CCN5C(=O)CC(SC[C@H](NC(=O)CCOCCOCCOCCOCCOCCOCCOCCOCCOCCOCCOCCOCCNC(=O)[C@H](CC(C)C)NC(=O)[C@H](CCC(N)=O)NC(=O)[C@H](CCCNC(=N)N)NC(=O)[C@H](CC(C)C)NC(=O)[C@@H](NC(=O)[C@H](C)NC(=O)[C@H](CC(C)C)NC(=O)[C@H](CC(=O)O)NC(=O)CNC(=O)[C@@H](N)CCCNC(=N)N)[C@@H](C)O)C(N)=O)C5=O)C(=O)NCCC(=O)O)C4=O)[C@@H](NC(=O)c4ccccc4)c4ccccc4)C(C)=C1C3(C)C)[C@]1(OC(C)=O)CO[C@@H]1C[C@@H]2O` (stereo partly drawn) [compound 3], the “time at which reduction of cell viability begins” value in the data set with H2009 cells [1] (1 μM for 10 min, then recovery) is on record as 72 h. Also, the “increase of paclitaxel release with esterase versus PBS” value in the data set on porcine esterase (esterase in PBS vs PBS) came out at 7 fold. Besides, the paclitaxel released in the data set with porcine esterase (porcine esterase (18u/mL) in PBS, 37° C, by 48 h) is listed as 34.1%. In addition, in [4], the solubility result is recorded as “soluble in cold water”. Also, in the data set on H2009 xenograft, the “delay of effect on tumor growth relative to free drug” value is given as 7 days and the “tumor growth rate compared to saline” value was “reduced the rate of tumor growth compared to saline”. Moreover, in the data set on H2009 cells [2] (1 μM, 24 h), the G1 is listed as 44.9, the G2/M was 39.0, the Polyploid is recorded as 8.0 and the S is 8.1. In the data set on H2009 cells [2] (1 μM, 48 h), this compound displayed a G1 of 11.4, a G2/M of 57.1, a Polyploid of 26.9 and an S of 4.5. Also, in the data set on H2009 cells [2] (1 μM, at 48 h), the “increase in number of cells in G2/M” value is ~ 2 fold and the “increase in polyploid cells” value worked out at 3 fold. In the data set with H2009 cells [2] (5 μM, 24 h), this compound registered a G1 of 35.8, a G2/M of 45.8, a Polyploid of 11.7 and an S of 6.7. In the data set with H2009 cells [2] (5 μM, 48 h), the G1 came out at 23.9, the G2/M is on record as 53.9, the Polyploid was 23.6 and the S was 8.5. In addition, the “effect on cell cycle” value in the data set on H2009 cells [2] (1 μM, at 24 h) was “the cell cycle remains unperturbed”. Further, the “more G2/M arrest at increased conjugate concentration” value in the data set with H2009 cells [2] (increased concentration (5 μM in Table II), at 24 h) was “Approximately 50%”. For the same compound, the IC50 result in the data set on H460 cells is “Not Reached ^b”. Also, the paclitaxel released result in data set [5] is reported as “minimal paclitaxel was released”.
As for `CC(=O)O[C@H]1C(=O)[C@@]2(C)[C@H]([C@H](OC(=O)c3ccccc3)[C@]3(O)C[C@H](OC(=O)[C@H](OC(=O)CCN4C(=O)CC(SC[C@H](NC(=O)[C@H](CCCCNC(=O)[C@H](CCCCNC(=O)CCN5C(=O)CC(SC[C@H](NC(=O)CCOCCOCCOCCOCCOCCOCCOCCOCCOCCOCCOCCOCCNC(=O)[C@H](CCCNC(=N)N)NC(=O)[C@H](CC(C)C)NC(=O)[C@@H](NC(=O)CNC(=O)[C@H](CCC(N)=O)NC(=O)[C@H](CC(C)C)NC(=O)[C@H](CCCNC(=N)N)NC(=O)[C@H](CC(C)C)NC(=O)[C@H](C)NC(=O)[C@@H](N)CC(=O)O)[C@@H](C)O)C(N)=O)C5=O)NC(=O)CCN5C(=O)CC(SC[C@H](NC(=O)CCOCCOCCOCCOCCOCCOCCOCCOCCOCCOCCOCCOCCNC(=O)[C@H](CCCNC(=N)N)NC(=O)[C@H](CC(C)C)NC(=O)[C@@H](NC(=O)CNC(=O)[C@H](CCC(N)=O)NC(=O)[C@H](CC(C)C)NC(=O)[C@H](CCCNC(=N)N)NC(=O)[C@H](CC(C)C)NC(=O)[C@H](C)NC(=O)[C@@H](N)CC(=O)O)[C@@H](C)O)C(N)=O)C5=O)NC(=O)[C@H](CCCCNC(=O)CCN5C(=O)CC(SC[C@H](NC(=O)CCOCCOCCOCCOCCOCCOCCOCCOCCOCCOCCOCCOCCNC(=O)[C@H](CCCNC(=N)N)NC(=O)[C@H](CC(C)C)NC(=O)[C@@H](NC(=O)CNC(=O)[C@H](CCC(N)=O)NC(=O)[C@H](CC(C)C)NC(=O)[C@H](CCCNC(=N)N)NC(=O)[C@H](CC(C)C)NC(=O)[C@H](C)NC(=O)[C@@H](N)CC(=O)O)[C@@H](C)O)C(N)=O)C5=O)NC(=O)CCN5C(=O)CC(SC[C@H](NC(=O)CCOCCOCCOCCOCCOCCOCCOCCOCCOCCOCCOCCOCCNC(=O)[C@H](CCCNC(=N)N)NC(=O)[C@H](CC(C)C)NC(=O)[C@@H](NC(=O)CNC(=O)[C@H](CCC(N)=O)NC(=O)[C@H](CC(C)C)NC(=O)[C@H](CCCNC(=N)N)NC(=O)[C@H](CC(C)C)NC(=O)[C@H](C)NC(=O)[C@@H](N)CC(=O)O)[C@@H](C)O)C(N)=O)C5=O)C(=O)NCCC(=O)O)C4=O)[C@@H](NC(=O)c4ccccc4)c4ccccc4)C(C)=C1C3(C)C)[C@]1(OC(C)=O)CO[C@@H]1C[C@@H]2O` (stereo partly drawn) [scrambled peptide-paclitaxel conjugate], the IC50 result in the data set with H2009 cells [1] and in the data set on H460 cells was “Not Reached ^b” throughout. Further, in [4], the solubility entry was “soluble in cold water”. Moreover, the “binding to H2009 cells” value in data set [6] is given as “no binding was observed”.
